Results published in US7183267B2, “β-lactamase inhibitors and methods of use thereof” (priority 2003, dated 2007).
Like-named read-outs stand apart in the source and are kept apart here.

How the values were obtained:
Assay type in all cases: cell-based
[1] = tested on: methicillin resistant S. aureus ATCC 33591 (MRSA-ATCC); experiment: MIC assay, broth microdilution, MRSA-ATCC; conditions: Staphylococcus aureus
Procedure: (1) methicillin resistant S. aureus ATCC 33591 (MRSA-ATCC). This strain was obtained from American Type Culture Collection (ATCC), Manassas, Md.;
(§1) The strains were processed according to procedures recommended by ATCC, or procedures that are routinely used. Single colonies of each organism were picked for purification to generate pure working cultures. Prior to each experiment each strain was subcultured on a fresh Mueller-Hinton agar plate (MHA).
(§2) Inocula for the MIC assays were prepared by transferring a tiny portion of one colony from a MHA plate to 2 ml of Mueller-Hinton broth (MHB) such that the estimated cell density was about 10^7 colony forming unit (CFU)/ml. This cell suspension was then further diluted 10-fold (to 10^6 CFU/ml) by transferring the 2 ml cell suspension to 18 ml of MHB. Addition of 50 μl of this dilute cell suspension to 50 μl of growth medium yielded the desired cell density, namely about 5×10^4 CFU/well, or 5×10^5 CFU/ml.
(§3) The MIC value of oxacillin was determined using the broth microdilution procedure recommended by the National Committee of Clinical Laboratory Standards (NCCLS, 2000).
(§4) The MIC experiments were performed in duplicate in 96-well microtiter plates using MHB. A stock solution of 2.6 mg/0.5 ml was prepared in dimethylsulfoxide (DMSO). A total of 8 two-fold serial dilutions were made with DMSO. Initial oxacillin doses used were (μg/ml): 64, 32, 16, 8, 4, 2, 1, and 0.5. Doses were adjusted in the confirmatory experiment, if needed, in order to establish an actual MIC value.
(§5) To each well of a 96 well microtiter plate was added 47.5 μl of MHB. A volume of 2.5 μl of each dilution of oxacillin was then transferred to appropriate wells containing the medium. All wells, except the sterility control wells, were then inoculated with 50 μl of a diluted cell suspension to give a final volume of 100 μl and a final cell density of 5×10^4 CFU/well. The volume in the sterility control wells was adjusted to 100 μl with MHB. A sterile pipette tip was used to mix the contents of each well (one tip was used going from the low to the high concentration in the same column). The microtiter plates were covered with the lids and were placed in large Stratagene Big Blue plates (Cat. # 400041). Four large kimwipes moistened with tap water were placed near the edges of the Stratagene plates to prevent evaporation of the medium. The microtiter plates were incubated for at least 24 hours at 35° C. The plates were then evaluated for growth in each well. Controls included: medium sterility and negative control (medium and bacteria only).
(§6) The procedure used to determine the antimicrobial activity of the compounds of the present invention was identical to the broth microdilution procedure described above with the exception of the preparation of the stock solutions. Stock solution at concentration of 40.96 mg/0.5 ml was prepared in DMSO for each of the compounds. A total of 8 two-fold dilutions were then made in DMSO. A volume of 2.5 μl of each dilution was delivered to appropriate wells. The initial doses used were (μg/ml): 512, 256, 128, 64, 32, 16, 8, and 4.
(§7) A numerical code was used to evaluate the extent of growth as indicated below. • 0: absence of growth • 1: barely visible (faint) growth • 2: fair growth but less than the negative solvent control • 3: growth is equivalent to the negative solvent control.
(§8) The lowest dose at which no visible growth is observed was determined to be the MIC value.
(§9) MIC assays were performed with oxacillin and the four compounds. Each of the compounds was tested at the following 8 doses (μg/ml): 512, 256, 128, 64, 32, 16, 8, and 4. Oxacillin was tested at the following 8 doses (μg/ml): 64, 32, 16, 8, 4, 2, 1, and 0.5.

[2] = tested on: methicillin sensitive S. aureus ATCC 25923 (MSSA); experiment: MIC assay, broth microdilution, MSSA; conditions: Staphylococcus aureus
Procedure: (3) methicillin sensitive S. aureus ATCC 25923 (MSSA). This strain was obtained from ATCC and was used as a control.
as §1, §2, §3, §4, §5, §6, §7, §8, §9

[3] = tested on: methicillin resistant S. aureus from Stanford University Hospital (MRSA-SU); experiment: MIC assay, broth microdilution, MRSA-SU; conditions: Staphylococcus aureus
Source text: (2) methicillin resistant S. aureus from Stanford University Hospital Clinical Microbiology/Virology Laboratory (MRSA-SU). […] Such Staphylococci are also resistant to all penicillins, and all cephalosporins, in addition to all β-lactamase inhibitor combinations (including ampicillin/sulbactarn, amoxicillin/clavulanic acid, piperacillin/tazobactam), imipenem, and meropenem; and
as §1, §2, §3, §4, §5, §6, §7, §8, §9

[4] = tested on: methicillin resistant S. aureus ATCC 33591 (MRSA-ATCC); experiment: Matrix system: oxacillin plus β-lactamase inhibitor, MRSA-ATCC; design: key to extent of growth (numerical code): 0 = no growth, 1 = faint, 2 = fair, 3 = equal to solvent control
Procedure: as §5, §7, §8
The effect of the four compounds of the present invention on oxacillin resistance of the MRSA strains was determined using a matrix system. The β-lactamase inhibitors were tested at 5 doses against up to eleven concentrations of oxacillin. […] A 96-well microtiter plate was used for the matrix system. The procedure was identical to that described above for the MIC determination, with the exception that both oxacillin and one each of the β-lactamase inhibitors was added, 2.5 μl each, to the wells prior to addition of the test organisms.
Matrix Study:Oxacillin and Compound FL201 with MRSA-ATCC
Matrix Study: Oxacillin and Compound Fl202 with MRSA-ATCC

COC(=O)c1cc(B(O)O)cc([N+](=O)[O-])c1 [Compound F1202]
128 µg/mL: MIC ([2]; 24 h)
16 µg/mL: MIC ([1]; 24 h) | MIC of oxacillin ([4]; matrix study, with compound 2 μg/ml)
0.125 µg/mL: MIC of oxacillin ([4]; matrix study, with compound 8 μg/ml)
1 µg/mL: MIC of oxacillin ([4]; matrix study, with compound 4 μg/ml)
3: extent of growth (numerical code) ([4]; oxacillin 0 μg/ml + compound 1 μg/ml) | extent of growth (numerical code) ([4]; oxacillin 0.064 μg/ml + compound 1 μg/ml) | extent of growth (numerical code) ([4]; oxacillin 0.064 μg/ml + compound 2 μg/ml) | extent of growth (numerical code) ([4]; oxacillin 0.125 μg/ml + compound 1 μg/ml) | extent of growth (numerical code) ([4]; oxacillin 0.125 μg/ml + compound 2 μg/ml) | extent of growth (numerical code) ([4]; oxacillin 0.25 μg/ml + compound 1 μg/ml) | extent of growth (numerical code) ([4]; oxacillin 0.5 μg/ml + compound 1 μg/ml) | extent of growth (numerical code) ([4]; oxacillin 1 μg/ml + compound 1 μg/ml)
1: extent of growth (numerical code) ([4]; oxacillin 0 μg/ml + compound 8 μg/ml) | extent of growth (numerical code) ([4]; oxacillin 0 μg/ml + compound 16 μg/ml) | extent of growth (numerical code) ([4]; oxacillin 0.064 μg/ml + compound 8 μg/ml) | extent of growth (numerical code) ([4]; oxacillin 0.25 μg/ml + compound 4 μg/ml) | extent of growth (numerical code) ([4]; oxacillin 0.5 μg/ml + compound 4 μg/ml) | extent of growth (numerical code) ([4]; oxacillin 8 μg/ml + compound 2 μg/ml)
256 µg/mL: MIC ([3]; MRSA, 24 h)
32 µg/mL: MIC of oxacillin ([4]; matrix study, with compound 1 μg/ml)
<0.064 µg/mL: MIC of oxacillin ([4]; matrix study, with compound 16 μg/ml)
0: extent of growth (numerical code) ([4]; oxacillin 0.064 μg/ml + compound 16 μg/ml) | extent of growth (numerical code) ([4]; oxacillin 0.125 μg/ml + compound 8 μg/ml) | extent of growth (numerical code) ([4]; oxacillin 0.125 μg/ml + compound 16 μg/ml) | extent of growth (numerical code) ([4]; oxacillin 0.25 μg/ml + compound 8 μg/ml) | extent of growth (numerical code) ([4]; oxacillin 0.25 μg/ml + compound 16 μg/ml) | extent of growth (numerical code) ([4]; oxacillin 0.5 μg/ml + compound 8 μg/ml) | extent of growth (numerical code) ([4]; oxacillin 0.5 μg/ml + compound 16 μg/ml) | extent of growth (numerical code) ([4]; oxacillin 1 μg/ml + compound 4 μg/ml) | extent of growth (numerical code) ([4]; oxacillin 1 μg/ml + compound 8 μg/ml) | extent of growth (numerical code) ([4]; oxacillin 1 μg/ml + compound 16 μg/ml) | extent of growth (numerical code) ([4]; oxacillin 2 μg/ml + compound 4 μg/ml) | extent of growth (numerical code) ([4]; oxacillin 2 μg/ml + compound 8 μg/ml) | extent of growth (numerical code) ([4]; oxacillin 2 μg/ml + compound 16 μg/ml) | extent of growth (numerical code) ([4]; oxacillin 4 μg/ml + compound 4 μg/ml) | extent of growth (numerical code) ([4]; oxacillin 4 μg/ml + compound 8 μg/ml) | extent of growth (numerical code) ([4]; oxacillin 4 μg/ml + compound 16 μg/ml) | extent of growth (numerical code) ([4]; oxacillin 8 μg/ml + compound 4 μg/ml) | extent of growth (numerical code) ([4]; oxacillin 8 μg/ml + compound 8 μg/ml) | extent of growth (numerical code) ([4]; oxacillin 8 μg/ml + compound 16 μg/ml) | extent of growth (numerical code) ([4]; oxacillin 16 μg/ml + compound 2 μg/ml) | extent of growth (numerical code) ([4]; oxacillin 16 μg/ml + compound 4 μg/ml) | extent of growth (numerical code) ([4]; oxacillin 16 μg/ml + compound 8 μg/ml) | extent of growth (numerical code) ([4]; oxacillin 16 μg/ml + compound 16 μg/ml) | extent of growth (numerical code) ([4]; oxacillin 32 μg/ml + compound 1 μg/ml) | extent of growth (numerical code) ([4]; oxacillin 32 μg/ml + compound 2 μg/ml) | extent of growth (numerical code) ([4]; oxacillin 32 μg/ml + compound 4 μg/ml) | extent of growth (numerical code) ([4]; oxacillin 32 μg/ml + compound 8 μg/ml) | extent of growth (numerical code) ([4]; oxacillin 32 μg/ml + compound 16 μg/ml) | extent of growth (numerical code) ([4]; oxacillin 64 μg/ml + compound 1 μg/ml) | extent of growth (numerical code) ([4]; oxacillin 64 μg/ml + compound 2 μg/ml) | extent of growth (numerical code) ([4]; oxacillin 64 μg/ml + compound 4 μg/ml) | extent of growth (numerical code) ([4]; oxacillin 64 μg/ml + compound 8 μg/ml) | extent of growth (numerical code) ([4]; oxacillin 64 μg/ml + compound 16 μg/ml)
2: extent of growth (numerical code) ([4]; oxacillin 0 μg/ml + compound 2 μg/ml) | extent of growth (numerical code) ([4]; oxacillin 0 μg/ml + compound 4 μg/ml) | extent of growth (numerical code) ([4]; oxacillin 0.064 μg/ml + compound 4 μg/ml) | extent of growth (numerical code) ([4]; oxacillin 0.125 μg/ml + compound 4 μg/ml) | extent of growth (numerical code) ([4]; oxacillin 0.25 μg/ml + compound 2 μg/ml) | extent of growth (numerical code) ([4]; oxacillin 0.5 μg/ml + compound 2 μg/ml) | extent of growth (numerical code) ([4]; oxacillin 1 μg/ml + compound 2 μg/ml) | extent of growth (numerical code) ([4]; oxacillin 2 μg/ml + compound 1 μg/ml) | extent of growth (numerical code) ([4]; oxacillin 2 μg/ml + compound 2 μg/ml) | extent of growth (numerical code) ([4]; oxacillin 4 μg/ml + compound 1 μg/ml) | extent of growth (numerical code) ([4]; oxacillin 4 μg/ml + compound 2 μg/ml) | extent of growth (numerical code) ([4]; oxacillin 8 μg/ml + compound 1 μg/ml) | extent of growth (numerical code) ([4]; oxacillin 16 μg/ml + compound 1 μg/ml)

Cc1onc(-c2ccccc2)c1C(=O)N[C@@H]1C(=O)N2[C@@H]1SC(C)(C)[C@@H]2C(=O)O [Oxacillin, reference compound]
64 µg/mL: MIC ([4]; Staphylococcus aureus, 24 h, matrix study, compound 0 μg/ml)
32 µg/mL: MIC ([1]; MRSA-ATCC, substance alone, at least 24 hours at 35° C., read-out: MIC)
0: extent of growth (numerical code) ([4]; oxacillin 64 μg/ml + compound 0 μg/ml)
3: extent of growth (numerical code) ([4]; oxacillin 0.064 μg/ml + compound 0 μg/ml) | extent of growth (numerical code) ([4]; oxacillin 0.125 μg/ml + compound 0 μg/ml) | extent of growth (numerical code) ([4]; oxacillin 0.25 μg/ml + compound 0 μg/ml) | extent of growth (numerical code) ([4]; oxacillin 0.5 μg/ml + compound 0 μg/ml) | extent of growth (numerical code) ([4]; oxacillin 1 μg/ml + compound 0 μg/ml) | extent of growth (numerical code) ([4]; oxacillin 2 μg/ml + compound 0 μg/ml) | extent of growth (numerical code) ([4]; oxacillin 4 μg/ml + compound 0 μg/ml) | extent of growth (numerical code) ([4]; oxacillin 8 μg/ml + compound 0 μg/ml)
0.25 µg/mL: MIC ([2]; MSSA, substance alone, at least 24 hours at 35° C., read-out: MIC)
> 64 µg/mL: MIC ([3]; MRSA-SU, substance alone, at least 24 hours at 35° C., read-out: MIC)
2: extent of growth (numerical code) ([4]; oxacillin 16 μg/ml + compound 0 μg/ml) | extent of growth (numerical code) ([4]; oxacillin 32 μg/ml + compound 0 μg/ml)
